# From ChEMBL document CHEMBL1131009, “Structure-activity relationship studies of novel carbocyclic influenza neuraminidase inhibitors” (J Med Chem, 1998)
# Molecular target: Neuraminidase (Influenza A virus (A/Puerto Rico/8/1934(H1N1)), UniProt P03468)
# Test: Inhibitory activity against influenza A neuraminidase from influenza A/PR/8/34 (H1N1).
# Set-up: species or system Influenza A virus (strain: A/PR/8/34)
row,Structure (SMILES),IC50 [nM]
1,CC[C@H](C)O[C@@H]1C=C(C(=O)O)C[C@H](N)[C@H]1NC(C)=O,9
2,CCCCCCCCCO[C@@H]1C=C(C(=O)O)C[C@H](N)[C@H]1NC(C)=O,210
3,CC[C@@H](C)O[C@@H]1C=C(C(=O)O)C[C@H](N)[C@H]1NC(C)=O,10
4,CCCO[C@@H]1C=C(C(=O)O)C[C@H](N)[C@H]1NC(C)=O,180
5,CCO[C@@H]1C=C(C(=O)O)C[C@H](N)[C@H]1NC(C)=O,2000
6,CC(=O)N[C@@H]1[C@@H](N)CC(C(=O)O)=C[C@H]1OCc1ccccc1,620
7,CCCCCCCO[C@@H]1C=C(C(=O)O)C[C@H](N)[C@H]1NC(C)=O,270
8,CC(=O)N[C@@H]1[C@@H](N)CC(C(=O)O)=C[C@H]1OC(Cc1ccccc1)Cc1ccccc1,> 1000
9,CC[C@@H](C)O[C@@H]1C=C(C(=O)O)C[C@H](NC(=N)N)[C@H]1NC(C)=O (stereo in doubt; 61),0.5
10,CC(=O)N[C@@H]1[C@@H](N)CC(C(=O)O)=C[C@H]1OCCCc1ccc(-c2ccccc2)cc1,90
11,CC[C@@H](CC1CCCCC1)O[C@@H]1C=C(C(=O)O)C[C@H](N)[C@H]1NC(C)=O,16
12,CCCCCCC[C@H](CC)O[C@@H]1C=C(C(=O)O)C[C@H](N)[C@H]1NC(C)=O,1
13,CCC(CC)O[C@@H]1C(F)=C(C(=O)O)C[C@H](N)[C@H]1NC(C)=O,3
14,CCCCCCCCCCO[C@@H]1C=C(C(=O)O)C[C@H](N)[C@H]1NC(C)=O,600
15,CC[C@@H](CCc1ccccc1)O[C@@H]1C=C(C(=O)O)C[C@H](N)[C@H]1NC(C)=O,0.3
16,CCCO[C@@H]1C=C(C(=O)O)C[C@H](N=C(N)N)[C@H]1NC(C)=O,2
17,CC[C@@H](CCC1CCCCC1)O[C@@H]1C=C(C(=O)O)C[C@H](N)[C@H]1NC(C)=O,1
18,CC(=O)N[C@H]1[C@H](O)C=C(C(=O)O)C[C@@H]1N=C(N)N,100
19,CC(=O)N[C@@H]1[C@@H](N)CC(C(=O)O)=C[C@H]1OC(CCCc1ccccc1)CCCc1ccccc1,> 1000
20,CCC(CC)O[C@@H]1C(C)=C(C(=O)O)C[C@H](N)[C@H]1NC(C)=O,2300
21,CO[C@@H]1C=C(C(=O)O)C[C@H](N)[C@H]1NC(C)=O,3700
22,CCCCCO[C@@H]1C=C(C(=O)O)C[C@H](N)[C@H]1NC(C)=O,200
23,CC(=O)N[C@@H]1[C@@H](N)CC(C(=O)O)=C[C@H]1OCC(C)C,200
24,CCCCO[C@@H]1C=C(C(=O)O)C[C@H](N=C(N)N)[C@H]1NC(C)=O,3
25,CC[C@H](CCc1ccccc1)O[C@@H]1C=C(C(=O)O)C[C@H](N)[C@H]1NC(C)=O,12
26,CCCCCCCCO[C@@H]1C=C(C(=O)O)C[C@H](N)[C@H]1NC(C)=O,180
27,CCCCCCO[C@@H]1C=C(C(=O)O)C[C@H](N)[C@H]1NC(C)=O,150
28,CC(=O)N[C@H]1[C@H](O)C=C(C(=O)O)C[C@@H]1N,6300
29,CCCCO[C@@H]1C=C(C(=O)O)C[C@H](N)[C@H]1NC(C)=O,300
30,CCC(CC)O[C@@H]1C=C(C(=O)O)[C@@H](C)[C@H](N)[C@H]1NC(C)=O,1500
